Experimental data taken from patent US8017611B2, “Pyridine and pyrazine derivatives -083” (AstraZeneca AB, priority 2007, dated 2011).

Target: T1, recombinant Axl tyrosine kinase (Homo sapiens, UniProt P30530)
T1 construct: encompassing amino acids 473 to 894 of Axl; GST (N); made in house; host or cells: SF126 insect cells
T1 sequence (P30530 473-894): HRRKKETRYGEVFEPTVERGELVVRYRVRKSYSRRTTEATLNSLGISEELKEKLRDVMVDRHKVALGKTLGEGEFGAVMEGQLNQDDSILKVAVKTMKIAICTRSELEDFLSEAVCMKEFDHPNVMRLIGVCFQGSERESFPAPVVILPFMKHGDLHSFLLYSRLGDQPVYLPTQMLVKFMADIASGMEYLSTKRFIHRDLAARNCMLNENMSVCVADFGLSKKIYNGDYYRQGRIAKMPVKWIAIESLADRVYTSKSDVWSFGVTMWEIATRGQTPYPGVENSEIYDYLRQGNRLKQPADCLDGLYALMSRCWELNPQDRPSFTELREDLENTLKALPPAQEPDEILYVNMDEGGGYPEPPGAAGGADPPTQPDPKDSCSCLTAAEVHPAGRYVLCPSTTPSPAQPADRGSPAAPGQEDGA
Assay: In vitro Axl kinase assay (AlphaScreen), Test (a)
Type: biochemical
Conditions: test compound at 1 μM, first value quoted; for inhibition at 1 µM: read-out: % Axl tyrosine kinase inhibition at 1 μM concentration

Row | Structure (SMILES) | % Axl tyrosine kinase inhibition at 1 μM concentration | inhibition at 1 µM
1 | COc1cc(-c2cnc(N)c(-c3nc4cccnc4o3)c2)ccc1OCCN1CCCC1 [Example 43C.1, 5-[3-methoxy-4-(2-pyrrolidin-1-ylethoxy)phenyl]-3-oxazolo[5,4-b]pyridin-2-yl-pyridin-2-amine] | – | 99.4%
2 | COc1cc(-c2cnc(N)c(-c3nc4ncccc4o3)c2)ccc1OCCN1CCOCC1 [Example 43C.2, 5-[3-methoxy-4-(2-morpholinoethoxy)phenyl]-3-oxazolo[4,5-b]pyridin-2-yl-pyridin-2-amine] | – | 97.1%
3 | CCN(CC)CCOc1ccc(-c2cnc(N)c(-c3nc4ncccc4o3)c2)cc1OC [Example 43C.4] | 99.8% | –
4 | COc1cc(-c2cnc(N)c(-c3nc4ncccc4o3)c2)ccc1OCCN1CCCC1 [Example 43C.5] | 99.7% | –
5 | COc1cc(-c2cnc(N)c(-c3nc4ncccc4o3)c2)ccc1OC[C@@H]1CCCN1C [Example 43C.6] | 99.8% | –
6 | COc1cc(-c2cnc(N)c(-c3nc4ncccc4o3)c2)ccc1OCCN1CCN(C)CC1 [Example 43C.7] | 99.1% | –
7 | COc1cc(-c2cnc(N)c(-c3nc4ncccc4o3)c2)ccc1OCCN1CCCCC1 [Example 43C.8] | 99.9% | –
8 | COc1cc(-c2cnc(N)c(-c3nc4ncccc4o3)c2)ccc1OC1CCCN(C)C1 (stereo not shown) [Example 43C.9] | 99.9% | –
9 | COc1cc(-c2cnc(N)c(-c3nc4ncccc4o3)c2)ccc1OCCCN(C)C [Example 43C.10] | 98.9% | –
10 | COc1cc(-c2cnc(N)c(-c3nc4ncccc4o3)c2)ccc1OCC1CCCN(C)C1 (stereo not shown) [Example 43C.12] | 99.6% | –
11 | COc1cc(-c2cnc(N)c(-c3nc4ncccc4o3)c2)ccc1OCCC1CCCCN1C (stereo not shown) [Example 43C.13] | 99.9% | –
12 | COc1cc(-c2cnc(N)c(-c3nc4ncccc4o3)c2)ccc1OCCCN1CCN(C)CC1 [Example 43C.14] | 99.3% | –
13 | COc1cc(-c2cnc(N)c(-c3nc4ncccc4o3)c2)ccc1OCCCN1CCN(S(C)(=O)=O)CC1 [Example 43C.15] | 97.2% | –
14 | COc1cc(-c2cnc(N)c(-c3nc4ncccc4o3)c2)ccc1OC1CC2CCC(C1)N2C (stereo not shown) [Example 43C.19] | 99.7% | –
15 | CNCCOc1ccc(-c2cnc(N)c(-c3nc4ncccc4o3)c2)cc1OC [Example 43C.22] | 98.2% | –
16 | COc1cc(-c2cnc(N)c(-c3nc4ncccc4o3)c2)ccc1OC1CCNC1 (stereo not shown) [Example 43C.23] | 99.3% | –

Row | Structure (SMILES) | % Axl tyrosine kinase inhibition at 1 μM concentration | inhibition at 1 µM
17 | COc1cc(-c2cnc(N)c(-c3nc4ncccc4o3)c2)ccc1OC[C@H]1CCCN1 [Example 43C.24] | 99.6% | –
18 | COc1cc(-c2cnc(N)c(-c3nc4ncccc4o3)c2)ccc1OCCN1CCNCC1 [Example 43C.25] | 99.5% | –
19 | COc1cc(-c2cnc(N)c(-c3nc4ncccc4o3)c2)ccc1OCCCN [Example 43C.27] | 99.4% | –
20 | CNCCCOc1ccc(-c2cnc(N)c(-c3nc4ncccc4o3)c2)cc1OC [Example 43C.28] | 51.0% | –
21 | COc1cc(-c2cnc(N)c(-c3nc4ncccc4o3)c2)ccc1OCCCCN [Example 43C.30] | 99.0% | –
22 | COc1cc(-c2cnc(N)c(-c3nc4ncccc4o3)c2)ccc1OCCCN1CC(C)NC(C)C1 (stereo not shown) [Example 43C.34] | 99.1% | –
23 | COCC1CC(Oc2ccc(-c3cnc(N)c(-c4nc5ncccc5o4)c3)cc2OC)CN1 (stereo not shown) [Example 43C.36] | 99.8% | –
24 | CN[C@H]1COCC[C@H]1Oc1ccc(-c2cnc(N)c(-c3nc4ncccc4o3)c2)cc1OC [Example 43C.37] | 99.4% | –
25 | COc1cc(-c2cnc(N)c(-c3nc4ncccc4o3)c2)ccc1OC1CCCNCC1 (stereo not shown) [Example 43C.38] | 99.8% | –
26 | CN(C)CCNC(=O)c1ccc(-c2cnc(N)c(-c3nc4cccnc4o3)c2)cc1 [Example 44, 4-(6-amino-5-(oxazolo[5,4-b]pyridin-2-yl)pyridin-3-yl)-N-(2-(dimethylamino)ethyl)benzamide] | – | 99.6%
27 | CN(C)C1CCN(C(=O)c2ccc(-c3cnc(N)c(-c4nc5cccnc5o4)c3)cc2)CC1 [Example 45A.1] | 92.9% | –
28 | CN(C)CCCCNC(=O)c1ccc(-c2cnc(N)c(-c3nc4cccnc4o3)c2)cc1 [Example 45A.2] | 96.6% | –
29 | CN1CCC(N(C)C(=O)c2ccc(-c3cnc(N)c(-c4nc5cccnc5o4)c3)cc2)C1 (stereo not shown) [Example 45A.3] | 98.0% | –
30 | CN1CCCC1CCNC(=O)c1ccc(-c2cnc(N)c(-c3nc4cccnc4o3)c2)cc1 (stereo not shown) [Example 45A.5] | 98.8% | –
31 | Nc1ncc(-c2ccc(C(=O)NCCn3ccnc3)cc2)cc1-c1nc2cccnc2o1 [Example 45A.7] | 97.7% | –

Results, then the compound that gave them:

Row | % Axl tyrosine kinase inhibition at 1 μM concentration | inhibition at 1 µM | Structure (SMILES)
32 | 92.3% | – | Nc1ncc(-c2ccc(OCCOCCN3CCNCC3)cc2)cc1-c1nc2ncccc2o1 [Example 43B.43]
33 | 99.4% | – | COc1cc(-c2cnc(N)c(-c3nc4ncccc4o3)c2)ccc1OCCN(C)C [Example 43C.3]
34 | 98.9% | – | COc1cc(-c2cnc(N)c(-c3nc4ncccc4o3)c2)ccc1OC1CCN(C)CC1 [Example 43C.11]
35 | 98.1% | – | COc1cc(-c2cnc(N)c(-c3nc4ncccc4o3)c2)ccc1OCCCN1CCS(=O)(=O)CC1 [Example 43C.16]
36 | 93.5% | – | COc1cc(-c2cnc(N)c(-c3nc4ncccc4o3)c2)ccc1OCCCN1CCOCC1 [Example 43C.17]
37 | 99.8% | – | CCN(CC)CCCOc1ccc(-c2cnc(N)c(-c3nc4ncccc4o3)c2)cc1OC [Example 43C.18]
38 | 98.1% | – | COc1cc(-c2cnc(N)c(-c3nc4ncccc4o3)c2)ccc1OCC#CCN1CCS(=O)(=O)CC1 [Example 43C.20]
39 | 99.3% | – | COc1cc(-c2cnc(N)c(-c3nc4ncccc4o3)c2)ccc1OCCN [Example 43C.21]
40 | 99.6% | – | COc1cc(-c2cnc(N)c(-c3nc4ncccc4o3)c2)ccc1OC1CCCNC1 (stereo not shown) [Example 43C.26]
41 | 99.9% | – | COc1cc(-c2cnc(N)c(-c3nc4ncccc4o3)c2)ccc1OC1CCNCC1 [Example 43C.29]
42 | 99.3% | – | COc1cc(-c2cnc(N)c(-c3nc4ncccc4o3)c2)ccc1OCCC1CCNCC1 [Example 43C.31]
43 | 99.8% | – | COc1cc(-c2cnc(N)c(-c3nc4ncccc4o3)c2)ccc1OCCCN1CCNCC1 [Example 43C.32]
44 | 99.8% | – | COc1cc(-c2cnc(N)c(-c3nc4ncccc4o3)c2)ccc1OCC1CCCNC1 (stereo not shown) [Example 43C.33]
45 | 99.2% | – | COc1cc(-c2cnc(N)c(-c3nc4ncccc4o3)c2)ccc1OCCOCCN1CCNCC1 [Example 43C.35]
46 | 97.4% | – | Nc1ncc(-c2ccc(C(=O)NCCCN3CCCC3)cc2)cc1-c1nc2cccnc2o1 [Example 45A.6]
